Data as given in ChEMBL document CHEMBL1201862, “PubChem BioAssay data set” (2004).
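Method: 48-hour compound exposure of cells in 96-well plates, five concentrations, linear interpolation of endpoints. Abbreviation: GI50, concentration required for 50% inhibition of growth.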 Activity calls are given as the source filed them. Cut-off read from the data, not from the text of the source: active = GI50 up to about 1.1 µM and inactive = higher.

Experiments:
Test in all cases: inhibition of tumour cell growth, NCI panel, 48 h
A549 = test system: A549
HT-29 = test system: HT-29
IGROV-1 = test system: IGROV-1
KM12 = test system: KM12
MOLT-4 = test system: MOLT-4
Malme-3M = test system: Malme-3M
NCI-H226 = test system: NCI-H226
NCI-H522 = test system: NCI-H522
OVCAR-5 = test system: OVCAR-5
SF-268 = test system: SF-268
SK-MEL-2 = test system: SK-MEL-2
SN12C = test system: SN12C
SNB-75 = test system: SNB-75
SR = test system: SR
TK-10 = test system: TK-10
UACC-62 = test system: UACC-62
UO-31 = test system: UO-31
OVCAR-3 = test system: OVCAR-3

Measured: GI50

O=C(Nc1cc(Cl)c(Cl)cc1Cl)C(=O)C1C(=O)NC(=S)NC1=O
inactive: A549 > 100 µM | HT-29 > 100 µM | IGROV-1 > 100 µM | KM12 > 100 µM | MOLT-4 > 100 µM | Malme-3M > 100 µM | NCI-H226 > 100 µM | NCI-H522 > 100 µM | OVCAR-5 > 100 µM | SF-268 > 100 µM | SK-MEL-2 > 100 µM | SN12C > 100 µM | SNB-75 > 100 µM | SR > 100 µM | TK-10 > 100 µM | UACC-62 > 100 µM | UO-31 > 100 µM

O=C(c1ccccc1)C(c1ccccc1)C1(O)C(=O)Nc2ccc([N+](=O)[O-])cc21 (stereo not given)
inactive: A549 > 100 µM | IGROV-1 > 100 µM | MOLT-4 83.2 µM | Malme-3M > 100 µM | NCI-H226 > 100 µM | NCI-H522 74 µM | OVCAR-5 > 100 µM | SF-268 > 100 µM | SK-MEL-2 > 100 µM | SN12C 62.4 µM | SNB-75 61 µM | TK-10 > 100 µM | UACC-62 58.1 µM | UO-31 47.6 µM

CC1CCC2(OC1)OC1CC3C4CCC5CC(O)CCC5(C)C4CC(=O)OC3(C)C1C2C (stereo not given)
inactive: A549 > 100 µM | HT-29 > 100 µM | IGROV-1 > 100 µM | KM12 > 100 µM | MOLT-4 > 100 µM | Malme-3M > 100 µM | NCI-H522 > 100 µM | OVCAR-3 > 100 µM | OVCAR-5 > 100 µM | SF-268 > 100 µM | SK-MEL-2 > 100 µM | SN12C > 100 µM | SNB-75 > 100 µM | SR > 100 µM | TK-10 > 100 µM | UACC-62 > 100 µM | UO-31 > 100 µM

O=C(CC(C(=O)c1ccsc1)c1cccs1)c1cccs1 (stereo not given)
inactive: A549 42.6 µM | HT-29 82.2 µM | IGROV-1 > 100 µM | MOLT-4 33 µM | Malme-3M > 100 µM | NCI-H226 > 100 µM | NCI-H522 33.4 µM | OVCAR-3 38.7 µM | OVCAR-5 > 100 µM | SF-268 > 100 µM | SK-MEL-2 > 100 µM | SN12C 65.8 µM | SNB-75 28.1 µM | SR 29.6 µM | TK-10 > 100 µM | UACC-62 75.7 µM | UO-31 28.1 µM

COC(OC)C(C)CC(=O)N(C)C (stereo not given)
inactive: A549 > 100 µM | HT-29 > 100 µM | IGROV-1 > 100 µM | KM12 > 100 µM | MOLT-4 > 100 µM | NCI-H226 > 100 µM | OVCAR-3 > 100 µM | OVCAR-5 > 100 µM | SF-268 > 100 µM | SK-MEL-2 > 100 µM | SN12C > 100 µM | SNB-75 > 100 µM | TK-10 > 100 µM | UACC-62 > 100 µM | UO-31 > 100 µM
